According to the NIST ThermoML archive (doi:10.1021/je901063s):
Values joined by “and” are separate entries in the source; they are usually repeats but may differ in a detail not shown here. Equal entries are not always repeated. Numbers after ± are expanded uncertainties.

Tests used:
[1] = activity coefficient (dimensionless); of the first substance listed, at infinite dilution; xn = mol fraction of the nth substance listed; conditions: 101 kPa, Liquid, inert gas stripping, headspace analysis in two variants - the classical and the relative, Rayleigh distillation, and circulation still, x1 = 0
[2] = of the first substance listed, at infinite dilution; xn = mol fraction of the nth substance listed; conditions: 101 kPa, Liquid, flow mixing microcalorimeter, x1 = 0

SMILES	activity coefficient ([1]; 273.35 K)	activity coefficient ([1]; 283.15 K)	activity coefficient ([1]; 293.15 K)	activity coefficient ([1]; 303.15 K)	activity coefficient ([1]; 313.15 K)	activity coefficient ([1]; 323.15 K)	activity coefficient ([1]; 333.15 K)	activity coefficient ([1]; 343.15 K)	activity coefficient ([1]; 353.15 K)	activity coefficient ([1]; 371.15 K)	partial molar enthalpy ([2]; 288.15 K) [kcal/mol]	partial molar enthalpy ([2]; 298.15 K) [kcal/mol]	partial molar enthalpy ([2]; 308.15 K) [kcal/mol]	activity coefficient ([1]; 363.15 K)	activity coefficient ([1]; 361.25 K)	activity coefficient ([1]; 371.45 K)
CCC(C)CO (stereo unspecified) [2-methyl-1-butanol] + O	86.3 ± 5.2	117 ± 7	138 and 134	158 and 151	163 and 173	180 and 173	170 and 179	169 ± 10	160 ± 10		-2.67 ± 0.0956	-1.98 ± 0.0478	-1.29 ± 0.0239	162 ± 10		
CCC(O)CC [3-pentanol] + O	48.7 ± 2.9	63.1 ± 3.8	75.6 ± 4.5	88.7 ± 5.3	101 ± 6	108 ± 7	116 ± 7	111 ± 7	120 ± 7	104 ± 6				117 ± 7		
CCC(C)(C)O [2-methylbutan-2-ol] + O	18.3 ± 1.1	24.5 ± 1.5	31.7 and 34.6	41.3 and 39.2	49 and 46.5	52.3 and 56.9	59.3 and 61.4	64.2 ± 3.9	67.1 ± 4						75.4 ± 4.5	73.9 ± 4.4

The next lines start with results.

activity coefficient ([1]; 273.35 K)	activity coefficient ([1]; 283.15 K)	activity coefficient ([1]; 293.15 K)	activity coefficient ([1]; 303.15 K)	activity coefficient ([1]; 313.15 K)	activity coefficient ([1]; 323.15 K)	activity coefficient ([1]; 333.15 K)	activity coefficient ([1]; 343.15 K)	activity coefficient ([1]; 353.15 K)	activity coefficient ([1]; 371.15 K)	partial molar enthalpy ([2]; 288.15 K) [kcal/mol]	partial molar enthalpy ([2]; 298.15 K) [kcal/mol]	partial molar enthalpy ([2]; 308.15 K) [kcal/mol]	activity coefficient ([1]; 363.15 K)	SMILES	activity coefficient ([1]; 361.25 K)	activity coefficient ([1]; 371.45 K)
43.5 ± 2.6	61.5 ± 3.7	73.9 ± 4.4	86.5 ± 5.2	96.6 ± 5.8	104 ± 6	110 ± 7	111 ± 7	107 ± 6	108 ± 7					CC(C)C(C)O (stereo unspecified) [3-methyl-2-butanol] + O		
94.9 ± 5.7	126 ± 8	148 and 146	161 and 164	173 and 175	179 and 184	182 and 178	179 ± 11	164 ± 10	149 ± 9					CC(C)CCO [3-methylbutan-1-ol] + O		
58.8 ± 3.5	73.9 ± 4.4	89.2 and 86.1	104 and 103	119 ± 7	129 ± 8	134 ± 8	134 ± 8	124 ± 7	118 ± 7				130 ± 8	CCCC(C)O (stereo unspecified) [pentan-2-ol] + O		
